{"source": "patent US9963476B2", "about": "“Antioxidant compound having anti atherosclerotic effect and preparation thereof” (Council of Scientific and Industrial Research, priority 2015, dated 2018)", "key": {"[1]": {"system": "AMPK1-α phosphorylation (Thr-172)", "assay": "Western blot of AMPK phosphorylation in HAEC", "assay_type": "cell-based, human", "experimental": "Previously, it was shown that AMPK co-immunoprecipitates with cardiac endothelial NO synthase (eNOS) and phosphorylates Ser-1177 in the presence of Ca^2+-calmodulin (CaM) to activate eNOS both in vitro and during ischaemia in rat hearts (FEBS Lett. (1999) 443:285-289). To test whether Mito-Esc mediates increased phosphorylation of eNOS through AMPK activation, initially, HAEC were treated various concentrations of Mito-Esc (1-5 μM) for 8 h and AMPK1-α phosphorylation (Thr-172) levels were measured. […] Next, we investigated the phospho-AMPK1-α levels in HAEC treated with H2O2 in the presence or absence of either Mito-Esc or native esculetin."}, "[2]": {"system": "mitochondrial membrane potential in HAEC", "assay": "Mitochondrial transmembrane potential (JC-1 / Mito-Sensor dye)", "assay_type": "cell-based, human", "conditions": "H2O2 500 μM, 16 h", "experimental": "Mitochondrial potential was assessed by using the fluorescent potentiometric JC-1 dye. In healthy cells, JC-1 forms J-aggregates that display a strong red fluorescence with excitation of 560 nm and emission wavelength at 595 nm. In apoptotic or unhealthy cells, JC-1 exists as monomers that display a strong green fluorescence with excitation and emission at 485 nm and 535 nm, respectively. At the end of the treatments, cells were washed with Dulbeccos phosphate buffer solution (DPBS) and incubated with JC-1 dye ([…]) for 20 min. Cells were again washed twice with DPBS and maintained in culture medium. Fluorescence was monitored by using Olympus fluorescence microscope with Rhodamine and Fluorescein isothiocyanate (FITC) filters.\n(§1) Ang-II is known to increase oxidative stress through increased production of H2O2 (Doughan A K, Harrison D G, Dikalov S I. Circ Res (2008) 102:488-96). […] Further, we assessed the effect of Mito-Esc on H2O2-induced mitochondrial membrane depolarization. HAEC were treated with H2O2 (500 μM) in the presence or absence of Mito-Esc for a period of 16 h and mitochondrial membrane potential was measured using a mitochondrial membrane sensor kit. […] In apoptotic cells, membrane potentials are altered and the Mito-Sensor dye cannot accumulate in mitochondria and, thus, remain as monomers leading to a green fluorescence."}, "[3]": {"system": "human aortic endothelial cells (HAEC)", "assay": "Trypan blue cell viability assay, oxidant-induced endothelial cell death", "assay_type": "cell-based", "conditions": "2.5 μM, 2 h pretreatment, H2O2 500 μM or Ang-II 500 nM, 24 h", "experimental": "Human aortic endothelial cells (HAECs) were obtained from ATCC (Manassas, Va.) and maintained (37° C. 5% CO2) in basal medium supplemented with 10% FBS, VEGF (5 ng/mL), hEGF (5 ng/mL), hFGF (5 ng/mL), IGF-1 (15 ng/mL), ascorbic acid (50 μg/mL), hydrocortisone (1 μg/mL), amphotericin (15 ng/mL), gentamicin (30 ng/mL) and heparin (0.75 Units/mL). Cells used in this study were between passages 4 and 9. Esculetin, Mito-Esc, TPP and nitric oxide synthase inhibitor (L-NAME) were added 2 h before the addition of H2O2 or Ang-II.\nAt the end of the treatments, cells were harvested and re-suspended in 0.4% trypan blue (Life Technologies) and percent cell viability was counted using cell countess chamber (Life Technologies).\nFor this, cells were pretreated for 2 h with either Mito-Esc or esculetin before they were incubated with either H2O2 or Ang-II."}, "[4]": {"system": "eNOS and AMPK phosphorylation", "assay": "eNOS and AMPK phosphorylation in total aorta lysate of ApoE−/− mice", "conditions": "compared to Ang-II alone or control", "procedure": "Experiments were conducted in 2-month-old male apolipoprotein E knockout (ApoE^−/−) mice according to the guidelines formulated for care and use of animals in scientific research (ICMR, New Delhi, India) at a CPCSEA (Committee for the Purpose of Control and Supervision of Experiments on Animals) registered animal facility. […] Animals were randomly divided into 3 groups each n=7:1) control 2) Ang-II treatment and 3) Mito-Esculetin+Ang-II treatment. Ang-II and Mito-Esculetin treatment groups received Ang-II (sigma) at a dose of 1.44 mg/kg/day for 6 weeks through sub-cutaneous route where as control group received normal saline. Mito-Esculetin treatment group received the compound at a dose of 0.5 mg/kg/day in normal drinking water. […]\nAt the end of the treatments, HAECs were washed with ice-cold DPBS and resuspended in RIPA buffer (20 mM Tris-HCl, pH 7.4/2.5 mM EDTA/1% Triton X-100/1% sodium deoxycholate/1% SDS/100 mM NaCl/100 mM sodium fluoride) containing protease inhibitor cocktail and phosphatase inhibitor cocktail-2 and -3. […] Protein bands were detected by using HRP substrate (Millipore-luminata). […]\nTo further corroborate Mito-Esc's ability to protect from Ang-II-induced endothelial dysfunction during the progression of atheromatous plaque formation, we measured phospho-AMPK, AMPK, phospho-eNOS and eNOS protein levels in total aorta lysate."}, "HAEC": {"system": "HAEC", "assay": "Cellular uptake: Mito-Esc/esculetin quantified by ESI-MS in cytosolic and mitochondrial fractions of HAEC", "assay_type": "in vitro ADME, human", "experimental": "After the treatment, cells were washed thrice with PBS. Similarly Mito-Esculetin+ Ang-II treatment group, Ang-II alone treatment group and control Apo E^−/− mice aortic tissue was taken. The isolation of mitochondrial and cytosolic extracts was carried out using a commercially available Proteo Extract Cytosol/Mitochondria Fractionation Kit (Cat. no. QIA88-Merck, USA) according to manufacturer's instructions. Initially, mitochondrial and cytosolic fractions were separated using a commercially available kit as mentioned elsewhere. Mito-Esc was quantified in the mitochondrial and cytosolic fractions obtained from HAEC and aorta of ApoE^−/− mice of different treatment groups as mentioned in Animal Experiments section (Table-1). Electrospray ionization (ESI)-MS. ESI-MS (positive mode) measurements were performed using a quadrupole time-of-flight mass spectrometer (QSTAR XL, Applied Biosystems/MDS Sciex, Foster City, Calif., USA). The data acquisition was under the control of Analyst QS software (Applied Biosystems). For the CID (collision-induced dissociation) experiments, the precursor ions were selected using the quadrupole analyzer and the product ions were analyzed using the TOF analyzer."}, "[5]": {"system": "Ang-II-induced H2O2 production in HAEC", "assay": "H2O2 levels by Amplex red assay", "assay_type": "cell-based, human", "conditions": "Ang-II 500 nM + Mito-Esc 2.5 μM, 16 h", "experimental": "Amplex red reagent was used to detect the released H2O2 from cells. […] Immediately, formation of resorufin fluorescence was measured in multi mode reader (PerkinElmer) with λex=540 and λem=585.\nas §1, with “kit. Mito-Sensor is a cationic dye that fluoresces differently in apoptotic and nonapoptotic cells.” for “kit.”"}, "SIRT-3, PGC-1α, TFAM": {"system": "SIRT-3, PGC-1α, TFAM", "conditions": "HAEC, 8 h", "procedure": "At the end of the treatments, HAECs were washed with ice-cold DPBS and resuspended in RIPA buffer (20 mM Tris-HCl, pH 7.4/2.5 mM EDTA/1% Triton X-100/1% sodium deoxycholate/1% SDS/100 mM NaCl/100 mM sodium fluoride) containing protease inhibitor cocktail and phosphatase inhibitor cocktail-2 and -3. The lysate was centrifuged for 15 min at 12000×g. […] Protein bands were detected by using HRP substrate (Millipore-luminata). All the antibodies used for this study were from CST.\nNext we investigated the ability of Mito-Esc to modulate the mitochondrial biogenetic regulators namely, silent mating type information regulation 2 homolog (SIRT)-3, Peroxisome proliferator-activated receptor-gamma coactivator (PGC)-1α and mitochondrial transcription factor A (TFAM)."}, "[6]": {"system": "caspase-3 and -8 activation in HAEC", "assay": "Caspase-3 and -8 activity in HAEC lysates", "assay_type": "cell-based, human", "conditions": "2.5 μM pretreatment", "procedure": "HAEC were washed twice with cold DPBS and lysed in buffer containing 10-mM Tris-HCl, 10-mM NaH2PO4/Na2HPO4 (pH, 7.5). 130-mM NaCl. 1% Triton, and 10-mM sodium pyrophosphate. Cell lysates were incubated with either with caspase-3 fluorogenic substrate (N-acetyl-Asp-Glu-Val-Asp-7-amido-4-methylcoumarin) or caspase-8 fluorogenic substrate (N-acetyl-Ileu-Glu-Thr-Asp-7 amido-4-methylcoumarin) at 37° C. for 1 h. The 7-amido-4-methyl-coumarin liberated was measured in a multi mode reader (PerkinElmer) with λex=380 nm and λem=460 nm."}, "[7]": {"system": "mitochondrial content in HAEC", "assay": "Mitotracker staining of mitochondrial content", "conditions": "2.5 μM, 8 h", "procedure": "Mitochondrial content in cells was assessed by selectively loading the mitochondria with the red fluorescent dye Mitotracker (Invitrogen, Carlsbad, Calif.)."}, "[8]": {"system": "Ang-II-induced atherosclerosis in ApoE−/− mice", "assay": "Ang-II-induced aortic aneurysm and atheromatous plaque formation in ApoE−/− mice", "procedure": "Experiments were conducted in 2-month-old male apolipoprotein E knockout (ApoE^−/−) mice according to the guidelines formulated for care and use of animals in scientific research (ICMR, New Delhi, India) at a CPCSEA (Committee for the Purpose of Control and Supervision of Experiments on Animals) registered animal facility. […] Animals were randomly divided into 3 groups each n=7:1) control 2) Ang-II treatment and 3) Mito-Esculetin+Ang-II treatment. Ang-II and Mito-Esculetin treatment groups received Ang-II (sigma) at a dose of 1.44 mg/kg/day for 6 weeks through sub-cutaneous route where as control group received normal saline. Mito-Esculetin treatment group received the compound at a dose of 0.5 mg/kg/day in normal drinking water. All animals were fed on normal chow throughout the study. After 6 weeks, all groups of animals were sacrificed as per standard protocols for euthanasia.\nWe further analyzed the vascular remodelling employing histological stains in tissue sections of thoracic aortas. […] In tune with this, we have also measured Mac-3 levels by flow cytometry."}, "[9]": {"conditions": "ApoE−/− mice, thoracic aorta sections"}}}
{"smiles": "O=c1cc(CCCCCCCC[P+](c2ccccc2)(c2ccccc2)c2ccccc2)c2cc(O)c(O)cc2o1.[Br-]", "note": "[Mito-Esc]", "values": [{"measurement": "concentration of maximum effect on phospho-AMPK1-α (Thr-172) levels", "setting": "[1]; 1-5 μM, 8 h", "result": 2.5, "unit": "µM"}, {"measurement": "phospho-AMPK1-α (Thr-172) levels", "setting": "[1]; 1-5 μM, 8 h", "result": "dose-dependent increase"}, {"measurement": "Ang-II-mediated inhibition of phospho-AMPK1-α", "setting": "[1]; Ang-II 500 nM, co-incubation", "result": "made cells resistant"}, {"measurement": "AMPK1-α phosphorylation in the presence of H2O2", "setting": "[1]; H2O2 500 μM, 2.5 μM, 8 h", "result": "greatly enhanced"}, {"measurement": "H2O2-mediated mitochondrial membrane depolarization", "setting": "[2]", "result": "significantly rescued"}, {"measurement": "oxidant (H2O2 and Ang-II)-induced endothelial cell death", "setting": "[3]", "result": "significantly inhibited"}, {"measurement": "phosphorylation statuses of eNOS and AMPK in total aorta lysate", "setting": "[4]", "result": "significant increase"}, {"measurement": "accumulation in the mitochondria compared to native esculetin", "setting": "HAEC", "result": "selectively accumulated in the mitochondria"}, {"measurement": "Cytosolic fraction", "setting": "HAEC; HAEC, 2.5 μM, 24 h", "result": "4488 ± 104", "unit": "nmol/mg protein"}, {"measurement": "Mitochondrial fraction", "setting": "HAEC; HAEC, 2.5 μM, 24 h", "result": "14523 ± 342", "unit": "nmol/mg protein"}, {"measurement": "Ang-II-induced H2O2 levels", "setting": "[5]", "result": "completely reversed H2O2 levels to control conditions"}, {"measurement": "RNA and protein levels of PGC-1α, TFAM", "setting": "SIRT-3, PGC-1α, TFAM; 2.5 μM", "result": "significantly increased"}, {"measurement": "SIRT-3 levels", "setting": "SIRT-3, PGC-1α, TFAM; 1-5 μM", "result": "significantly increased"}, {"measurement": "Ang-II treatment induced inhibition of PGC-1A, TFAM and SIRT-3 levels", "setting": "SIRT-3, PGC-1α, TFAM; Ang-II 500 nM, 2.5 μM", "result": "significantly reversed"}, {"measurement": "H2O2 and Ang-II-induced caspase-3 and -8 activation", "setting": "[6]", "result": "markedly resistant"}, {"measurement": "mitochondrial content, treatment alone compared to control", "setting": "[7]", "result": "increased mitochondrial content"}, {"measurement": "thick fibrous mature connective tissue around atheroma (Masson trichrome staining)", "setting": "[8]; ApoE−/− mice aorta", "result": "almost disappeared"}, {"measurement": "Ang-II-induced plaque extension, micro/pseudo aneurysm formation and maximal aortic diameters", "setting": "[8]; ApoE−/− mice, thoracic and abdominal aorta, six weeks, 0.5 mg/kg/day in drinking water", "result": "significant reduction"}, {"measurement": "Ang-II induced severe atherosclerotic lesions (H&E staining of aorta)", "setting": "[8]; [9]", "result": "complete protection"}, {"measurement": "luminal diameter compared to Ang-II alone", "setting": "[8]; [9]", "result": "significantly restored"}]}
